Experimental data: US11555026B2, “AHR inhibitors and uses thereof” (Ikena Oncology, Inc., priority 2017, dated 2023)

Each compound was assayed against T1, AHR (UniProt P35869) (assay: DRE-Luciferase Reporter Assay (Alternate Method, Example 1B)). Settings: alternate method: compound and agonist added at plating or after overnight incubation; murine (Hepa1-6, Hepa-1c1c7) or human (HepG2) DRE-luciferase reporter cells, cell line used not stated.
T1 sequence (P35869 1-848): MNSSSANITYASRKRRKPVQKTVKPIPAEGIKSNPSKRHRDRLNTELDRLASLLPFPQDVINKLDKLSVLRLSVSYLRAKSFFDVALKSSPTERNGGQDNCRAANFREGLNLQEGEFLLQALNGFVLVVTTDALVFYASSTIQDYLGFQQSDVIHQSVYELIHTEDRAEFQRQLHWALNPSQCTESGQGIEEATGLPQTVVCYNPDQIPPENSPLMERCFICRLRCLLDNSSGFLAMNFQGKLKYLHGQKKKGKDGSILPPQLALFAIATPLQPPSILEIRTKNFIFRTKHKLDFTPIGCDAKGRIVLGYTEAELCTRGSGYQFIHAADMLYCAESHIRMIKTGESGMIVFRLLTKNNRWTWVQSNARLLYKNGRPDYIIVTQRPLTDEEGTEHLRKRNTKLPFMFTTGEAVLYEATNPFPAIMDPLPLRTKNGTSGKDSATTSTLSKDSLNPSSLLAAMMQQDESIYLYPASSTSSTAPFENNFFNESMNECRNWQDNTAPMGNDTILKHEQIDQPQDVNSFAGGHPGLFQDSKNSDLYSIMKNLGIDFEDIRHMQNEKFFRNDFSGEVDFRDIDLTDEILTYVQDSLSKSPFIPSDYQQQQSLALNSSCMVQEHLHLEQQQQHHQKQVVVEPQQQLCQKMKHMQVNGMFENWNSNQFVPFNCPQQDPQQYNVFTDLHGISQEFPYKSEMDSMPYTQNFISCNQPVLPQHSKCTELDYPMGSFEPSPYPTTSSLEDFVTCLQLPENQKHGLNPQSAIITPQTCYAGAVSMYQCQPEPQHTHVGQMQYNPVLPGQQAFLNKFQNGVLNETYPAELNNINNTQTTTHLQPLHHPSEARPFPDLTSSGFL
Type: cell-based
Design: IC50; other: alternate method: compound and agonist added at plating or after overnight incubation; murine (Hepa1-6, He)
Method: AHR binds to Dioxin Responsive Elements (DRE) upstream of genes that it activates. One measure of AHR activity is activation of a reporter gene, such as luciferase, downstream of one or multiple DRE elements. Luciferase activity will reflect activation and inhibition of AHR in the cells expressing his reporter.
Murine Hepa1-6 or Hepa-1c1c7 or other murine cell line with a DRE-luciferase reporter either stably or transiently transfected were plated in media in plates (96-well, 384-well or other plates) and incubated overnight at 37° C. in a CO2 incubator or compound and agonist were added at the time of plating. Likewise, human HepG2 or other human cell line with a DRE-luciferase reporter either stably or transiently transfected were plated in media in plates (96-well, 384-well or other plates) and incubated overnight at 37° C. in a CO2 incubator or compound and agonist were added at the time of plating.
At the time that cells are plated or following incubation overnight, an AHR activating ligand, such as TCDD, kynurenine, ITE (2-(1H-indole-3-ylcarbonyl)-4-thiazolecarboxylic methyl ester), VAF347, BNF (beta-naphthoflavone), FICZ (6-formylindolo(3,2-b) carbazole or other AHR ligands, was added with or without AHR antagonist.
Cells were incubated for 4, 15 or 24 hours or another time point and then lysed for determination of luciferase activity as a read-out of the AHR activation or inhibition. Luciferase was measured with a commercial kit such as the Promega Luciferase kit or any kit or reagents that provide the luciferin substrate for measuring luciferase activity. The level of luciferase with only activating ligand added was the maximum signal while the luciferase with no ligand was the minimum signal. IC50 values were determined as the concentration which inhibits half of the luciferase activity.

Row | Compound | IC50
1 | Cc1cc(C#CC2CCNCC2)ccc1NC(=O)c1ccnn1C [I-57, 2-Methyl-N-[2-methyl-4-[2-(4-piperidyl)ethynyl]phenyl]pyrazole-3-carboxamide] | > 1500 nM
2 | Cn1nccc1C(=O)Nc1ccc(C#Cc2ccccc2)cc1C(F)(F)F [I-62] | > 1500 nM
3 | Cc1cc(C2CC2c2ccccc2)ccc1NC(=O)c1ccnn1C (stereo not drawn) [I-71] | > 1500 nM
4 | Cc1cc(C#Cc2cccc3c2OCO3)ccc1NC(=O)c1ccnn1C [I-53, N-[4-[2-(1,3-Benzodioxol-4-yl)ethynyl]-2-methyl-phenyl]-2-methyl-pyrazole-3-carboxamide] | > 1500 nM
5 | Cc1cc(C#Cc2cccnc2)ccc1NC(=O)c1ccnn1C [I-56, 2-Methyl-N-[2-methyl-4-[2-(3-pyridyl)ethynyl]phenyl]pyrazole-3-carboxamide] | > 1500 nM
6 | CC#Cc1ccc(NC(=O)c2ccnn2C)c(C)c1 [I-61, 2-methyl-N-(2-methyl-4-prop-1-ynyl-phenyl)pyrazole-3-carboxamide] | > 1500 nM
7 | Cn1cncc1C(=O)Nc1ccc2cc(-c3ccccc3)cnc2c1 [I-79, 3-Methyl-N-(3-phenyl-7-quinolyl)imidazole-4-carboxamide] | > 1500 nM
8 | Cn1nccc1C(=O)Nc1ccc2cc(-c3nccs3)cnc2c1 [I-44, 2-Methyl-N-(3-thiazol-2-yl-7-quinolyl)pyrazole-3-carboxamide] | < 500 nM
9 | Cc1cc(C#Cc2ccncc2)ccc1NC(=O)c1ccnn1C [I-55, 2-Methyl-N-[2-methyl-4-[2-(4-pyridyl)ethynyl]phenyl]pyrazole-3-carboxamide] | > 1500 nM
10 | Cc1ccccc1/C=C/c1ccc(C(=O)Nc2ccnn2C)c(C)c1 [I-73] | > 1500 nM
11 | Cn1nccc1C(=O)Nc1ccc(C#Cc2ccccc2)cc1 [I-63, 2-Methyl-N-[4-(2-phenylethynyl)phenyl]pyrazole-3-carboxamide] | > 1500 nM
12 | Cn1nccc1C(=O)Nc1ccc2cc(C3CCCCC3)cnc2c1 [I-49, N-(3-Cyclohexyl-7-quinolyl)-2-methyl-pyrazole-3-carboxamide] | > 1500 nM
13 | Cn1nccc1C(=O)Nc1ccc2cc(-c3cccc(N4CCOCC4)c3)cnc2c1 [I-85, 2-Methyl-N-[3-(3-morpholinophenyl)-7-quinolyl]pyrazole-3-carboxamide] | > 1500 nM
14 | Cn1nccc1C(=O)Nc1ccc2cc(-c3ccsc3)cnc2c1 [I-48, 2-Methyl-N-[3-(3-thienyl)-7-quinolyl]pyrazole-3-carboxamide] | < 500 nM
15 | Cc1cc(C#CC2CCCCC2)ccc1NC(=O)c1ccnn1C [I-54, N-[4-(2-Cyclohexylethynyl)-2-methyl-phenyl]-2-methyl-pyrazole-3-carboxamide] | > 1500 nM
16 | Cn1nccc1C(=O)Nc1ccc2c(=O)n(-c3ccccc3)cnc2c1 [I-77, 2-Methyl-N-(4-oxo-3-phenyl-quinazolin-7-yl)pyrazole-3-carboxamide] | > 1500 nM
17 | Cn1nccc1C(=O)Nc1ccc2cccnc2c1 [I-50, 2-Methyl-N-(7-quinolyl)pyrazole-3-carboxamide] | > 1500 nM
18 | Cn1nccc1C(=O)Nc1ccc(C#Cc2ccccc2)c2c1OCO2 [I-59, 2-Methyl-N-[7-(2-phenylethynyl)-1,3-benzodioxol-4-yl]pyrazole-3-carboxamide] | > 1500 nM
19 | COc1cc(C#Cc2ccccc2)ccc1NC(=O)c1ccnn1C [I-60, N-[2-Methoxy-4-(2-phenylethynyl)phenyl]-2-methyl-pyrazole-3-carboxamide] | > 1500 nM
20 | CC(=O)Nc1ccc2cc(-c3ccccc3)cnc2c1 [I-47, N-(3-Phenyl-7-quinolyl)acetamide] | > 1500 nM
21 | COc1ccccc1C#Cc1ccc(NC(=O)c2ccnn2C)c(C)c1 [I-64] | > 1500 nM
22 | Cc1cc(/N=N/c2cccc3cccnc23)ccc1NC(=O)c1ccnn1C [I-74] | > 1500 nM
23 | Cn1nccc1C(=O)Nc1ccc2cc(-c3cccc(C(F)(F)F)c3)cnc2c1 [I-84, 2-Methyl-N-[3-[3-(trifluoromethyl)phenyl]-7-quinolyl]pyrazole-3-carboxamide] | < 500 nM
24 | Cc1cc(/C=C/c2ccccc2)ccc1N(C)C(=O)c1ccnn1C [I-66] | 500 to 1000 nM
25 | Cn1nccc1C(=O)Nc1ccc2cc(-c3ncco3)cnc2c1 [I-45, 2-Methyl-N-(3-oxazol-2-yl-7-quinolyl)pyrazole-3-carboxamide] | 500 to 1000 nM
26 | Cc1cc(C#Cc2ccccn2)ccc1NC(=O)c1ccnn1C [I-58, 2-Methyl-N-[2-methyl-4-[2-(2-pyridyl)ethynyl]phenyl]pyrazole-3-carboxamide] | > 1500 nM
27 | Cn1nccc1C(=O)Nc1ccc2cc(-c3ccc(N4CCOCC4)cc3)cnc2c1 [I-80, 2-Methyl-N-[3-(4-morpholinophenyl)-7-quinolyl]pyrazole-3-carboxamide] | > 1500 nM
28 | O=C(Nc1ccc2cc(-c3ccccc3)cnc2c1)c1ccn[nH]1 [I-78, N-(3-Phenyl-7-quinolyl)-1H-pyrazole-5-carboxamide] | 500 to 1000 nM

Now from value to compound:

Row | IC50 | Compound
29 | > 1500 nM | CC(C)n1nccc1C(=O)Nc1ccc2cc(-c3ccccc3)cnc2c1 [I-76, 2-Isopropyl-N-(3-phenyl-7-quinolyl)pyrazole-3-carboxamide]
30 | < 500 nM | Cn1nccc1C(=O)Nc1ccc2cc(-c3ccccc3)cnc2c1 [I-70]
31 | < 500 nM | Cc1ccccc1-c1cnc2cc(NC(=O)c3ccnn3C)ccc2c1 [I-51, 2-Methyl-N-[3-(o-tolyl)-7-quinolyl]pyrazole-3-carboxamide]
32 | > 1500 nM | Cc1ccccc1-c1ccc2c(C)c(NC(=O)c3ccnn3C)ccc2n1 [I-72]
33 | 500 to 1000 nM | Cc1cc(/N=N/c2cccc3ccccc23)ccc1NC(=O)c1ccnn1C [I-75]
34 | > 1500 nM | Cc1c(NC(=O)c2ccnn2C)ccc2nc(-c3ccccc3)ccc12 [I-68]
35 | > 1500 nM | Cn1nccc1C(=O)Nc1ccc2cc(-c3ccccc3C(F)(F)F)cnc2c1 [I-88, 2-Methyl-N-[3-[2-(trifluoromethyl)phenyl]-7-quinolyl]pyrazole-3-carboxamide]
36 | 1000 to 1500 nM | Cn1nccc1C(=O)Nc1ccc2cc(-c3cccc(O)c3)cnc2c1 [I-82, N-[3-(3-Hydroxyphenyl)-7-quinolyl]-2-methyl-pyrazole-3-carboxamide]
37 | > 1500 nM | Cc1ccccc1-c1ccc2cc(NC(=O)c3ccnn3C)ccc2c1 [I-52, 2-Methyl-N-[6-(o-tolyl)-2-naphthyl]pyrazole-3-carboxamide]
38 | > 1500 nM | Cn1nccc1C(=O)Nc1ccc2cc(-c3ccc(C(F)(F)F)cc3)cnc2c1 [I-87, 2-Methyl-N-[3-[4-(trifluoromethyl)phenyl]-7-quinolyl]pyrazole-3-carboxamide]
39 | 500 to 1000 nM | Cn1nccc1C(=O)Nc1cnc2cc(-c3ccccc3)ccc2c1 [I-67]
40 | > 1500 nM | Cc1ccccc1-c1cnc2ccc(NC(=O)c3ccnn3C)c(C)c2c1 [I-69]
41 | 1000 to 1500 nM | Cn1nccc1C(=O)Nc1ccc2cc(-c3ccccc3O)cnc2c1 [I-81, N-[3-(2-Hydroxyphenyl)-7-quinolyl]-2-methyl-pyrazole-3-carboxamide]
42 | > 1500 nM | Cn1nccc1C(=O)Nc1ccc2cc(-c3ccc(O)cc3)cnc2c1 [I-86, N-[3-(4-Hydroxyphenyl)-7-quinolyl]-2-methyl-pyrazole-3-carboxamide]
43 | > 1500 nM | Cn1nccc1C(=O)Nc1ccc2cc(-c3ccccc3N3CCOCC3)cnc2c1 [I-83, 2-Methyl-N-[3-(2-morpholinophenyl)-7-quinolyl]pyrazole-3-carboxamide]
44 | < 500 nM | Cn1nccc1C(=O)Nc1ccc2cc(-c3cccs3)cnc2c1 [I-46, 2-Methyl-N-[3-(2-thienyl)-7-quinolyl]pyrazole-3-carboxamide]
45 | 500 to 1000 nM | Cn1nccc1C(=O)Nc1ccc2nc(-c3ccccc3)cnc2c1 [I-65]
